Earlier results on one substance are cited in US6841363B2, “Preparation of capped mRNA” (Emory University, priority 2000, dated 2005).

pKd: −log10 of the molar value.

For data set [1] the following is noted: intrinsic fluorescence, m7GTP; W56Y compared with wild-type, 'shown therein' (Hsu et al. 2000 / U.S. Pat. No. 6,232,442).
Another data set has as its target m7GTP. The settings on record: previous study (U.S. Pat. No. 6,232,442); human eIF4E and mutants; read-out: Kd (affinity for m7GTP).

Regarding “wild-type: abundant form of human eIF4E (eukaryotic initiation factor 4E) previously isolated and characterized”, the pKd (commonly the negative decadic logarithm of the Kd, by convention in mol/L) is 6.50 in data set [1] and 5.92 at m7GTP.
